Test system: Penicillium Chrysogenom
Assay: Modified Agar plate method, fungicidal activity against Penicillium spores (number of colonies)
Format: cell-based
Conditions: Treatment II: 1 ml solution of Captan in water at 200 ppm

In the case of `O=C1C2CC=CCC2C(=O)N1SC(Cl)(Cl)Cl` (stereo not shown) [CAPTAN, Captan], the “inhibition (observation of number of colonies)” value is reported as “total inhibition”.
